Experimental findings from paper PMC9818021, “Targets, Mechanisms and Cytotoxicity of Half-Sandwich Ir(III) Complexes Are Modulated by Structural Modifications on the Benzazole Ancillary Ligand” (Cancers, 2022) are described below.

Series [1] relates to Calf thymus DNA. The experiment in a line: DNA melting temperature (DSC). It is filed as binding. The following applies: as a function of CD/CP, overnight incubation. The method, then:
Differential scanning calorimetry (DSC) studies were performed in a nano DSC (TA Instruments, Newcastle, USA) to determine the melting temperature of DNA in the absence and in the presence of different amount of the Ir(III) complexes. Cells were 300 μL platinum capillary tubes. Measurements were performed by heating the dye/polynucleotide system from 20 to 90 °C, at 1 °C/min scan rate and 3 atm pressure. To reduce the formation of bubbles upon heating to a minimum, the reference and the sample solutions were previously degassed for 30 min in a degassing station (TA Instruments, Newcastle, USA). The thermograms recorded were analysed with the NanoAnalyze 2.0 software. The buffer–buffer baseline was run at least five heating/cooling cycles until the heating was reproducible, and then, it was subtracted from the sample data.

Series [2] relates to Calf thymus DNA. As to the kind of experiment: Kinetics of covalent binding to DNA (UV-vis, NMR). The following applies: for Covalent binding to DNA: UV-Vis and NMR; for kc x 103 (rate constant of covalent binding to DNA): values are kc x 103, CP/CD = 20. As to the method:
Materials. The iridium chloride salt (IrCl3·nH2O) was purchased from Johnson Mattey. The ligands 2-phenylbenzimidazole, 2-(2′-pyridylbenzimidazole), 2-(2′-aminophenylbenzimidazole), 2-(2′-aminophenylbenzothiazole), 2-(2′-hydroxyphenylbenzimidazole) and 2-(2′-hydroxyphenylbenzothiazole) were purchased from Sigma-Aldrich. The ligands 2-phenyl-N-methyl-benzimidazole and 2-(2′-pyridyl)l-N-methyl-benzimidazole were prepared according to slightly modified reported protocols. Deuterated solvents were obtained from SDS and Euriso-top. Unless otherwise specified, all the biological reagents were purchased from Merck Life Science S.L.U., Madrid, Spain. Calf thymus DNA provided as a highly polymerized lyophilized sodium salt was dissolved into doubly-deionized water and sonicated with an MSE-Sonyprep sonicator to reduce the polymer length at approximately 1000 base-pairs. The molar DNA concentration in base pairs, ε (260 nm) = 13,200 M^−1 cm^−1 [49], will be expressed as CP. BSA was supplied as crystallized and lyophilized powder (≥98%, agarose gel electrophoresis and ≤0.005% fatty acids); the BSA concentration of the stock solutions was spectrophotometrically determined as ε (278 nm) = 45,000 M^−1 cm^−1. All aqueous solutions were prepared with MilliQ-grade water using a Direct-Q8UV system from Millipore (Millipore Ibérica S.A., Madrid, Spain). All solvents were of analytical grade. The chemical studies were carried out in aqueous solutions at 25 °C, I = 2.5 mM sodium cacodylate (NaCaC) and pH between 6.0 and 7.1 unless other conditions are stated. All buffers with the biological components were of biological grade and used as received.
The UV-vis measurements were performed with a Hewlett-Packard 8453A (Agilent Technologies, Palo Alto, CA, USA) photodiode array spectrophotometer with a Peltier temperature control system. Titrations were carried out at 25 °C by adding increasing amounts of DNA solution to the iridium complex solution. The pKa values were measured by analysing the absorbance change of iridium complex solutions recorded at different pH values. The melting experiments were carried out using a DNA solution varying the CIr-complex/CDNA (CD/CP) ratio from 0 to 1, keeping CP constant and recording the absorbance spectra while heating from 25 to 90 °C at 0.3 °C/min.
The slow kinetic measurements were performed with the previous spectrophotometer while the fast kinetic measurements were performed in a stopped flow Bio-Logic SFM-300 spectrophotometer with an absorbance detection system and dead time below 3 ms. The kinetic curves, obtained averaging out at least five shots, were analysed with the Jandel (AISN software, Mapleton, OR) fitting package.
2 - Interaction wit h DNA
Aquo- complexes bind DNA(N7) more easily than their chlorido analogous[1],[2].
complexes were incubated overnight until the aquation process i s co m ple t ed. Water-insoluble
compounds were firstly dissolved in DMSO and then diluted in water.
From the fitting of absorbance-time graphs (Figure S8 ) to a biexponential analysis, two rate
constants were obtained. The fast reaction could be related to covalent binding, being k c t he
to DNA/Ir-complex rearrangements, so it was disregarded.
0. 174 3 [ N, NH] 4 [ N, NMe ]
Figure S13. Biexponential kinetic curves of DNA with A) 3[N,NH] CD = 1.0 3×1 0-5 M, B) 4[N,NMe] CD =
M, F) 8[CO,S] C D = 9.4 0×1 0- 6 M. CP/CD = 20.
Table S10. Rate constants for the covalent binding between the complexes and DNA.
The formation of covalent DNA/Ir-complex product (PD), can be represented according to the
where P represents the polynucleotide DNA and D the Iridium -metal complexes. Henceforth, CD
and CP stand for the analytical D and P concentrations, respectively.
Nevertheless, we observed that for each complex, the kc values remained essentially constant
with the increment of CP (Figure S9 ), proving that the reaction is monomolecular. Therefore, PD […]

A further series has as its target T1, BSA (Bos taurus, UniProt P02769).
T1 construct: purchased Merck Life Science S.L.U., Madrid, Spain
The experiment in a line: Native PAGE of BSA with iridium complexes. Format: binding, bovine. The following applies: BSA 3 µM, CD/CP = 10, overnight. As to the method:
Native protein electrophoresis. The interaction between BSA and iridium complexes was studied using native polyacrylamide gel electrophoresis (PAGE). The BSA concentration was 3 µM and the CD/CP ratio was 10. The samples of BSA/Ir-complexes were incubated overnight. The samples were mixed with a sample buffer (glycerol and bromophenol) and loaded into a 10% polyacrylamide gel for PAGE analysis (BioRad electrophoresis accessories). The gel was run at 80 V for 3 h, and then it was stained and destained before the gel was imaged using BioRad Gel Doc XR+ molecular imager. The staining solution contains 45% MeOH, 10% glacial acetic acid, 45% H2O and 0.1% brilliant blue, whereas the destaining solution consists of 20% MeOH, 10% glacial acetic acid and 70% H2O.

The next series is described as follows: Qualitative solubility. Format: physicochemical. The settings on record: 1-2 mg, solvent up to 1 mL. The method, then:
Solubility. The solubility of the complexes was qualitatively assessed. Different solvents were added drop-by-drop while shaking to a small amount of complex (around 1–2 mg) in a vial until the solvent added exceeded 1 mL. Afterwards, it was checked if the solid was or not completely dissolved and/or if the solution got coloured.

Entries after “also recorded” stand apart in the source; their conditions may differ.

T1 sequence (P02769 25-607): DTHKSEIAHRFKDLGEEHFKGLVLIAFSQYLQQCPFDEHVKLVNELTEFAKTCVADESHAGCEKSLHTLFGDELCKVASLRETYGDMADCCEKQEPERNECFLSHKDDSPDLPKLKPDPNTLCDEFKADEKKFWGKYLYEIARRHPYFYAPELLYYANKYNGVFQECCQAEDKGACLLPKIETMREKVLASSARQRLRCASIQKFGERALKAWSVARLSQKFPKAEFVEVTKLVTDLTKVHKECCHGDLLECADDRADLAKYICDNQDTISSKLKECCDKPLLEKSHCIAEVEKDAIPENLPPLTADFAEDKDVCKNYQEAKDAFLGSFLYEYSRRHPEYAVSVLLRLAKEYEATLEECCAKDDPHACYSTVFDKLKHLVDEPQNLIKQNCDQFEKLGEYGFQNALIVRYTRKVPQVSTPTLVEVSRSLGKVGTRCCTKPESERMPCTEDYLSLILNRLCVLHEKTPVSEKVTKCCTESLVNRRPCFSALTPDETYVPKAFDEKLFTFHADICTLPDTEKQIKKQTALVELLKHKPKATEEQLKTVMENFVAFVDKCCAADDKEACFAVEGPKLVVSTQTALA

For the molecule `Cc1c(C)c(C)[c-](C)c1C.[Cl-].[Cl][Ir]1[NH2+]c2ccccc2-c2[nH]c3ccccc3[n+]21` [5[CNH2,NH], [(η^5-Cp*)IrCl(κ^2-N,N-apbim)]Cl], the “∆Tm of DNA” value in the series with Calf thymus DNA [1] is reported as “+5 oC”. Further, in the series with Calf thymus DNA [2], the “Covalent binding to DNA” value is “able to covalently bind DNA” and the “kc x 103 (rate constant of covalent binding to DNA)” value stood at 3.9 ± 0.1 s-1. In addition, the “Interaction with BSA” value on BSA was “do not interact with the protein”. In addition, the Solubility in water result in the series “Qualitative solubility” (listed as 5[CNH2,NH-Cl]) is on record as “soluble in water”. For the same molecule, the Solubility in water entry in the series “Qualitative solubility” (listed as 5[CNH2,NH-Cl]+) is listed as “water-soluble”.
For `Cc1c(C)c(C)[c-](C)c1C.Cn1c2[n+](c3ccccc31)[Ir]([Cl])[c]1ccccc1-2` [2[C,NMe], [(η^5-Cp*)IrCl(κ^2-N,C-NMepbim)]], the “∆Tm of DNA” value in the series with Calf thymus DNA [1] came out at 0 oC. Also, the “Covalent binding to DNA” value in the series on Calf thymus DNA [2] is listed as “ruled out”. Besides, the “Interaction with BSA” value at BSA is given as “do not interact with the protein”. In addition, the Solubility in water entry in the series “Qualitative solubility” (listed as 2[C,NMe-Cl]) is given as “insoluble in water; also recorded: soluble in DMSO, but not in water”.
In the case of `Cc1c(C)c(C)[c-](C)c1C.[Cl][Ir]1[O]c2ccccc2-c2sc3ccccc3[n+]21` [8[CO,S], [(η^5-Cp*)IrCl(κ^2-O,N-hpbtz)]], in the series with Calf thymus DNA [1], the “∆Tm of DNA” value worked out at 0 oC. Further, in the series on Calf thymus DNA [2], the “Covalent binding to DNA” value is “able to covalently bind DNA” and the “kc x 103 (rate constant of covalent binding to DNA)” value turned out to be 6.0 ± 0.2 s-1. Besides, the “Interaction with BSA” value at BSA is on record as “interacts with BSA”. In addition, the Solubility in water entry in “Qualitative solubility” (listed as 8[CO,S-Cl]) was “insoluble in water; also recorded: soluble in DMSO, but not in water”.
With `Cc1c(C)c(C)[c-](C)c1C.[Cl][Ir]1[O]c2ccccc2-c2[nH]c3ccccc3[n+]21` [7[CO,NH], [(η^5-Cp*)IrCl(κ^2-O,N-hpbim)]], the “∆Tm of DNA” value in the series with Calf thymus DNA [1] was 0 oC. For the same molecule, in the series with Calf thymus DNA [2], the “Covalent binding to DNA” value was “able to covalently bind DNA” and the “kc x 103 (rate constant of covalent binding to DNA)” value turned out to be 3.7 ± 0.1 s-1. Moreover, the “Interaction with BSA” value on BSA is reported as “interactions”. Also, in the series “Qualitative solubility” (listed as 7[CO,NH-Cl]), the Solubility in water result is on record as “insoluble in water; also recorded: soluble in DMSO, but not in water”.
Regarding `Cc1c(C)c(C)[c-](C)c1C.Cn1c2[n+](c3ccccc31)[Ir]([Cl])[n+]1ccccc1-2.[Cl-]` [4[N,NMe], [(η^5-Cp*)IrCl(κ^2-N,N-pyMebim)]Cl], the “∆Tm of DNA” value with Calf thymus DNA [1] was -14 oC. For the same molecule, in the series with Calf thymus DNA [2], the “Covalent binding to DNA” value is “able to covalently bind DNA” and the “kc x 103 (rate constant of covalent binding to DNA)” value is reported as 16 ± 1 s-1. Besides, the “Interaction with BSA” value at BSA was “interactions”. Moreover, the Solubility in water result in the series “Qualitative solubility” (listed as 4[N,NMe-Cl]) was “soluble in water”. Moreover, in “Qualitative solubility” (listed as 4[N,NMe-Cl]+), the Solubility in water entry was “water-soluble”.
On to `Cc1c(C)c(C)[c-](C)c1C.[Cl-].[Cl][Ir]1[n+]2ccccc2-c2[nH]c3ccccc3[n+]21` [3[N,NH], [(η^5-Cp*)IrCl(κ^2-N,N-pybim)]Cl], for which the “∆Tm of DNA” value with Calf thymus DNA [1] is reported as -35 oC. Also, in the series with Calf thymus DNA [2], the “Covalent binding to DNA” value is “able to covalently bind DNA” and the “kc x 103 (rate constant of covalent binding to DNA)” value was determined as 20 ± 2 s-1. In addition, on BSA, the “Interaction with BSA” value is given as “interactions”. For the same molecule, the Solubility in water entry in “Qualitative solubility” (listed as 3[N,NH-Cl]) was “soluble in water”. For the same molecule, the Solubility in water entry in the series “Qualitative solubility” (listed as 3[N,NH-Cl]+) was “water-soluble”.
In the case of `Cc1c(C)c(C)[c-](C)c1C.[Cl-].[Cl][Ir]1[NH2+]c2ccccc2-c2sc3ccccc3[n+]21` [6[CNH2,S], [(η^5-Cp*)IrCl(κ^2-N,N-apbtz)]Cl], in the series with Calf thymus DNA [1], the “∆Tm of DNA” value was “+21 oC”. For the same molecule, in the series with Calf thymus DNA [2], the “Covalent binding to DNA” value is given as “able to covalently bind DNA” and the “kc x 103 (rate constant of covalent binding to DNA)” value came to 6.4 ± 0.2 s-1. Moreover, the “Interaction with BSA” value at BSA is “do not interact with the protein”. For the same molecule, the Solubility in water entry in “Qualitative solubility” is “water-soluble”.
For `Cc1c(C)c(C)[c-](C)c1C.[Cl][Ir]1[c]2ccccc2-c2[nH]c3ccccc3[n+]21` [1[C,NH], [(η^5-Cp*)IrCl(κ^2-N,C-pbim)]], the “∆Tm of DNA” value in the series with Calf thymus DNA [1] worked out at 0 oC. Moreover, the “Covalent binding to DNA” value in the series on Calf thymus DNA [2] is recorded as “ruled out”. Moreover, the “Interaction with BSA” value at BSA is recorded as “do not interact with the protein”. In addition, in the series “Qualitative solubility” (listed as 1[C,NH-Cl]), the Solubility in water entry is reported as “insoluble in water; also recorded: soluble in DMSO, but not in water”.
